Assay results published in patent US20060069132A1, “Azolecarboxamide herbicides” (priority 2004, published 2006).

How the values were obtained:
Experiment in all cases: Test E pre-/postemergence herbicide test
Details in all cases: Preemergence
bermudagrass = assay type: in vivo, Cynodon dactylon
Summary of the method: (§1)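 Test chemicals in a non-phytotoxic solvent mixture with surfactant applied preemergence to planted seeds and postemergence to plants 2 to 18 cm tall (1- to 4-leaf stage). After 12 to 14 days in the greenhouse, injury rated visually against untreated controls on a 0–100 scale (0 no effect, 100 complete control).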

green foxtail = assay type: in vivo, Setaria viridis
Summary of the method: as §1

common ragweed = assay type: in vivo, Ambrosia elatior
Summary of the method: as §1

guineagrass = assay type: in vivo, Panicum maximum
Summary of the method: as §1

southern sandbur = assay type: in vivo, Cenchrus echinatus
Summary of the method: as §1

common sowthistle = assay type: in vivo, Sonchus oleraceous
Text: (§2) Seeds of plant species selected from bipinnate beggarticks (Bidens bipinnata L.), hairy beggarticks (Bidens radiata Thuill.), bermudagrass (Cynodon dactylon (L.) Pers.), Surinam grass (Urochloa decumbens (Staph) R. D. Webster, previously named Brachiaria decumbens Stapf), large crabgrass (Digitaria sanguinalis (L.) Scop.), green foxtail (Setaria viridis (L.) P. Beauv.), goosegrass (Eleusine indica (L.) Gaertn.), johnsongrass (Sorghum halepense (L.) Pers.), kochia (Kochia scoparia (L.) Schrad.), pitted morningglory (Ipomoea lacunosa L.), purple nutsedge (Cyperus rotundus L.), common ragweed (Ambrosia elatior L.), mustard (Brassica nigra (L.) W. D. J. Koch), guineagrass (Panicum maximum Jacq.), dallisgrass (Paspalum dilatatum Poir.), barnyardgrass (Echinochloa crus-galli (L). P. Beauv.), southern sandbur (Cenchrus echinatus L.), common sowthistle (Sonchus oleraceous L.), prickly sida (Sida spinosa L.), Italian ryegrass (Lolium multiflorum Lam.), common purslane (Portulaca oleracea L.), broadleaf signalgrass (Brachiaria platyphylla (Griseb.) Nash), common groundsel (Senecio vulgaris L.), common chickweed (Stellaria media (L.) Vill/Cyr.), tropical spiderwort (Commelina benghalensis L.), annual bluegrass (Poa annua L.), downy bromegrass (Bromus tectorum L.), itchgrass (Rottboellia cochinchinensis (L.) L.f.), quackgrass (Elytrigia repens (L.) Nevski), Canada horseweed (Erigeron Canadensis L.), field bindweed (Convolvulus arvensis L.), spotted spurge (Euphorbia maculata L.), common mallow (Malva sylvestris (=s silvestris) L.), and Russian thistle (Salsola kali L. ssp. Ruthenica (Iljin) Soo) were planted and treated preemergence with test chemicals formulated in a non-phytotoxic solvent mixture which included a surfactant.
(§3) At the same time, plants selected from these weed species were treated with postemergence applications of some of the test chemicals formulated in the same manner. Plants ranged in height from 2 to 18 cm (1- to 4-leaf stage) for postemergence treatments. Treated plants and controls were maintained in a greenhouse for 12 to 14 days, after which time all species were compared to controls and visually evaluated. Plant response ratings, summarized in Table E, are based on a scale of 0 to 100 where 0 is no effect and 100 is complete control. A dash (-) response means no test result.

Italian ryegrass = assay type: in vivo, Lolium multiflorum
Summary of the method: as §1

field bindweed = assay type: in vivo, Convolvulus arvensis
Summary of the method: as §1

Russian thistle = assay type: in vivo, Salsola kali
Text: as §2, §3

[1] = 250 g ai/ha, scale 0 (no effect) to 100 (complete control)
[2] = 375 g ai/ha, scale 0 (no effect) to 100 (complete control)
[3] = 500 g ai/ha, scale 0 (no effect) to 100 (complete control)

## CCc1nn(C(C)(C)C)cc1C(=O)Nc1cc(C(=O)N(C)C)ccn1 [Compound 293]
bermudagrass; 125 g ai/ha, scale 0 to 100
  Plant response rating, Bermudagrass: 90
bermudagrass; [1]
  Plant response rating, Bermudagrass: 95
bermudagrass; [2]
  Plant response rating, Bermudagrass: 95
bermudagrass; [3]
  Plant response rating, Bermudagrass: 95
Green foxtail; 125 g ai/ha, scale 0 to 100
  Plant response rating, Foxtail, Green: 50
Green foxtail; [1]
  Plant response rating, Foxtail, Green: 95
Green foxtail; [2]
  Plant response rating, Foxtail, Green: 95
Green foxtail; [3]
  Plant response rating, Foxtail, Green: 100
Common ragweed; 125 g ai/ha, scale 0 to 100
  Plant response rating, Ragweed: 50
Common ragweed; [1]
  Plant response rating, Ragweed: 70
Common ragweed; [2]
  Plant response rating, Ragweed: 100
Common ragweed; [3]
  Plant response rating, Ragweed: 100
guineagrass; 125 g ai/ha, scale 0 to 100
  Plant response rating, Guineagrass: 100
guineagrass; [1]
  Plant response rating, Guineagrass: 100
guineagrass; [2]
  Plant response rating, Guineagrass: 100
guineagrass; [3]
  Plant response rating, Guineagrass: 100
Southern sandbur; 125 g ai/ha, scale 0 to 100
  Plant response rating, Sandbur: 10
Southern sandbur; [1]
  Plant response rating, Sandbur: 100
Southern sandbur; [2]
  Plant response rating, Sandbur: 100
Southern sandbur; [3]
  Plant response rating, Sandbur: 100
Common sowthistle; 125 g ai/ha, scale 0 to 100
  Plant response rating, Sowthistle: 75
Common sowthistle; [1]
  Plant response rating, Sowthistle: 95
Common sowthistle; [2]
  Plant response rating, Sowthistle: 95
Common sowthistle; [3]
  Plant response rating, Sowthistle: 100
Italian ryegrass; 125 g ai/ha, scale 0 to 100
  Plant response rating, Ryegrass, Italian: 60
Italian ryegrass; [1]
  Plant response rating, Ryegrass, Italian: 95
Italian ryegrass; [2]
  Plant response rating, Ryegrass, Italian: 95
Italian ryegrass; [3]
  Plant response rating, Ryegrass, Italian: 100
Field bindweed; 125 g ai/ha, scale 0 to 100
  Plant response rating, Bindweed, Field: 40
Field bindweed; [1]
  Plant response rating, Bindweed, Field: 60
Field bindweed; [2]
  Plant response rating, Bindweed, Field: 95
Field bindweed; [3]
  Plant response rating, Bindweed, Field: 95
Russian thistle; 125 g ai/ha, scale 0 to 100
  Plant response rating, Thistle: 60
Russian thistle; [2]
  Plant response rating, Thistle: 95
Russian thistle; [3]
  Plant response rating, Thistle: 100
